Assay [1] concerns breast cancer cell line MDA-MB-231. The assay can be described thus: breast cancer model in mice, MDA-MB-231 intratibial (bioluminescence imaging). It counts as in vivo. To be noted: MDA-MB-231 intratibially in CD1 nude mice; 0.1 mg s.c. daily from day 30 for 10 days; read on day 40; vs 0.9% NaCl. As to the method:
FIG. 5 Prevention of breast cancer growth by cyclic GLQGE (SEQ ID NO: 5) in form of hydrochloride salt (cyclic GLQGE HCl salt). Cells from the breast cancer cell line MDA-MB-231 were injected intratibially in mice. Starting on day 30, injection with 0.1 mg/mouse/day of the cyclic peptide Gly-Leu-Gln-Gly-Glu (SEQ ID NO: 5) (cyclic GLQGE HCl salt) for 10 days or 0.9% NaCl subcutaneously was performed. On day 40, the size of the tumour was evaluated by bioluminescence imaging (Bioluminescence imaging was performed by detecting photon signal 5 minutes after D-luciferin injection (150 mg/kg) using an “IVIS Lumina II” imaging system. The resulting images were analysed using the software “Living Image”). RLU=relative light units. The number of animals in each group was N=14/7 mice, in two experiments. * p<0.05 as evaluated by t-test. Data are presented as mean+SEM.
The hydrochloride salt of cyclic peptide Gly-Leu-Gln-Gly-Glu (cyclic GLQGE; SEQ ID NO: 5) was tested for its ability in prevention of breast cancer in mice. […] On day 40, the size of the tumor was evaluated by bioluminescence imaging (Bioluminescence imaging was performed by detecting photon signal 5 minutes after D-luciferin injection (150 mg/kg) using an “IVIS Lumina II” imaging system. The resulting images were analyzed using the software “Living Image”). […]

The subject of assay [2] is B16 melanoma cancer cells. Put plainly: B16 melanoma model in mice (tumor weight). Format: in vivo. The conditions noted are these: B16 melanoma cells (10^6) s.c. in mice; 1 mg peptide s.c. on day 7; tumours weighed on day 12. On the procedure: FIG. 3 Prevention of cancer growth by cyclic GLQGE (SEQ ID NO: 5) in form of hydrochloride salt (cyclic GLQGE HCl salt). B16 melanoma cancer cells were injected subcutaneously in mice. On day 7, injection with 1 mg of the peptide or 0.9% NaCl subcutaneously was performed. On day 12 mice were euthanized and tumors removed and weighed. N=11/11 mice. Data presented as mean+SEM.
The cyclic peptide Gly-Leu-Gln-Gly-Glu (cyclic GLQGE; SEQ ID NO: 5) in form of hydrochloride salt was tested for its ability in prevention of cancer growth in a melanoma model in mice. B16 melanoma cancer cells (10^6 cells) were injected subcutaneously in mice. On day 7, injection with 1 mg of the cyclic GLQGE peptide (SEQ ID NO: 5) or 0.9% NaCl (control mice) subcutaneously was performed. On day 12 mice were euthanized and tumours removed and weighed. N=11/11 mice. Results are shown on FIG. 3 as mean+SEM. […] Thus, the cyclic peptide Gly-Leu-Gin-Gly-Glu (SEQ ID NO: 5) represents a promising therapeutic drug for use in the treatment of cancer.

Counter-ions that a name gives are not always drawn. Residues, ends and D or L forms follow the SMILES beside them.

Turning to `CC(C)C[C@@H]1NC(=O)CNC(=O)[C@H](CCC(=O)O)NC(=O)CNC(=O)[C@H](CCC(N)=O)NC1=O` [SEQ ID NO: 5 (HCl salt), Gly-Leu-Gln-Gly-Glu] (HELM PEPTIDE1{E.G.L.Q.G}$PEPTIDE1,PEPTIDE1,1:R1-5:R2$$$V2.0), the “size of the tumor by bioluminescence imaging” value in assay [1] is “significantly (p<0.05) diminished”. Also, the “diminution of cancer size (tumor weight) as compared to control mice” value in assay [2] is listed as “approximately 72%”.

Values taken from patent US12454551B2, “Peptides as inhibitors of fibrotic matrix accumulation” (Max-Planck-Gesellschaft zur Förderung der Wissenschaften …, priority 2019, dated 2025).
